Laboratory results from ChEMBL document CHEMBL1154552, “Two new prenylated 3-benzoxepin derivatives as cyclooxygenase inhibitors from Perilla frutescens var. acuta” (J Nat Prod, 2000).

What was measured:
[1] = molecular target: T1, Prostaglandin G/H synthase 1 (Ovis aries, UniProt P05979); test: Inhibition of COX1 in ram seminal vesicle microsomes assessed as reduction of PGE2 formation; design: species or system Microsome
T1 sequence (P05979 whole entry): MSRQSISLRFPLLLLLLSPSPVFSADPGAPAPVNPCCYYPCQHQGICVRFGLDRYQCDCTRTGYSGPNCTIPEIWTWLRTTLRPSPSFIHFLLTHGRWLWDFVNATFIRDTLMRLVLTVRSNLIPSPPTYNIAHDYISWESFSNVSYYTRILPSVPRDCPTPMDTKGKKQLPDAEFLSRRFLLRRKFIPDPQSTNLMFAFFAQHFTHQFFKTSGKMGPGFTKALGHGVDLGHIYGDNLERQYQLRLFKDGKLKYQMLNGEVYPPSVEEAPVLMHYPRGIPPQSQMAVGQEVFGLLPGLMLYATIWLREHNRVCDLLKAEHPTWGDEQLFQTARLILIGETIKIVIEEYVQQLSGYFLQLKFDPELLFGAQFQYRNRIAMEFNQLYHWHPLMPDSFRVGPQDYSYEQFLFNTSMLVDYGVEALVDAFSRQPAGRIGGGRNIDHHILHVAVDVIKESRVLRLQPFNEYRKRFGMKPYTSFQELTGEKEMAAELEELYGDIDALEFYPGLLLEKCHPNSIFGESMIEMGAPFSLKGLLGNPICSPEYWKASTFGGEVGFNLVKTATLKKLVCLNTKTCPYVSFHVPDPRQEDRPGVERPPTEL

[2] = molecular target: T2, Prostaglandin G/H synthase 1 (Ovis aries) (UniProt P05979); conditions: Seminal vesicle, Microsome, 5 uM
T2 sequence (whole entry): T1 sequence (P05979 whole entry)
Description: Inhibition of COX1 in ram seminal vesicle microsomes assessed as reduction of PGE2 formation at 5 uM

Row | IC50 [1] [µM] | inhibition [2] [%] | SMILES
1 | 30.4 |  | COc1cc2cc(C(C)(C)O)oc2c2c1C=COC=C2
2 |  | 0.2 | COc1ccc2c(c1)c(CC(=O)O)c(C)n2C(=O)c1ccc(Cl)cc1
3 | 23.2 |  | COc1cc2c(c3c1C=COC=C3)O[C@@H](C(C)(C)O)C2 [PERILLOXIN]
